# Laboratory results from patent publication US20160237402A1, “Methods and Compositions for Ex Vivo Generation of Developmentally Competent Eggs from Germ Line Cells Using Autologous Cell Systems” (NORTHEASTERN UNIVERSITY, priority 2013, published 2016).
# Columns and labels:
# [1] = system: FACS-purified Fox12-DsRed-positive cells; assay: Estradiol and progesterone production by FACS-purified Fox12-DsRed-positive cells (ELISA of culture medium); assay type: cell-based, mouse; conditions: FSH 100 ng/ml or 8-br-cAMP 1 mM; cultured 24, 48 or 72 hours; versus vehicle (PBS) control; cells isolated on day 12 of ESC differentiation
# Procedure: (§1) FIG. 5A is a graph showing estradiol production by FACS-purified Fox12-DsRed positive cells (2×10^3 cells per well), which spontaneously differentiated in embryonic stem cell cultures, maintained in culture for up to 3 days (FSH, 100 ng/ml; 8-br-cAMP, 1 mM). Data are the mean±SEM of 3 independent cultures (*, P<0.05 versus vehicle control).
# as §1, with “5B” for “5A”, “progesterone” for “estradiol”
# To identify and track ovarian somatic cells in differentiating ESC cultures, the expression of the early granulosa cell marker, Fox12, in differentiating ESC cultures was mapped. […] A 739 by region of the Fox12 gene promoter was identified using Genome Vista. The region was isolated from mouse genomic DNA and cloned into the pDsRed2-1 vector (Clontech, Mountain View, Calif.,) or the pLenti6 lentiviral construct containing the complete open reading frame of DsRed (Gateway Lentiviral System; Invitrogen), thus creating a DsRed expression vector under control of the Fox12 gene promoter.
# Promoter activity and specificity were verified using mouse granulosa cells as a positive control and 293 cells (Invitrogen) as a negative control. To verify the Fox12 gene promoter-driven DsRed expression, undifferentiated TgOG2 ESCs were stably transfected with the Fox12-pDsRed2-1 construct via electroporation, followed by clonal selection and expansion. Alternatively, ESCs were virally transduced following initiation of differentiation using viral supernatant produced by 293 cells transfected with the Fox12-DsRed lentiviral construct (pLenti6-Fox12-DsRed). Cells were analyzed for expression of DsRed by fluorescence microscopy and isolated by fluorescence-activated cell sorting (FACS).
# For FACS, differentiating ESCs were removed from the plate by either 0.25% trypsin-EDTA (prior to day 10 of differentiation) or manually scraped. […] The cells were analyzed and sorted using a FACS Aria flow cytometer (BD Biosciences, San Jose, Calif.).
# Estradiol and progesterone concentrations were measured in culture medium from FACS-purified Fox12-DsRed-positive cells that had been re-plated and cultured for 24, 48 or 72 hours in the presence of PBS (vehicle), 100 ng/ml follicle stimulating hormone (FSH; NIDDK, NIH, Bethesda, Md.) or 1 mM 8-bromoadenosine-3′,5′-cyclic monophosphate (8-br-cAMP; Sigma-Aldrich). […]
# [2] = system: OSC differentiation into oocytes; assay: GCV treatment of transgenic mice with Stra8 promoter-driven HSVtk; counts of oocyte-containing primordial follicles; assay type: in vivo
# Procedure: FIGS. 2A-D are graphs that show the OSCs of aged mice lose the ability to support primordial follicle formation. Transgenic mice, ranging from 2-11 months, having an inducible “suicide gene” (herpes simplex virus thymidine kinase or HSVtk) that specifically disrupts OSC differentiation into oocytes only in the presence of the HSVtk pro-drug ganciclovir (GCV), were tested for their ability to lose and regain their oocyte reserves after activation and deactivation of the suicide gene, respectively.
# Animals and treatments. Transgenic pStra8-Gfp mice with expression of green fluorescent protein (GFP) driven by the promoter of the meiosis commitment gene, stimulated by retinoic acid gene 8 (Stra8;) mice were generated as described in Imudia et al., Fertil Steril, 100:1451-1458 (2013). Transgenic mice with herpes simplex virus thymidine kinase (HSVtk) expression driven by the Stra8 promoter were generated by replacing the GFP-coding sequence in the pStra8-Gfp construct with cDNA encoding GFP-fused HSVtk and the constructs were then sent to Genoway for generation of the transgenic lines, as described (Imudia et al., Fertil Steril, 100:1451-1458 (2013). For comparative studies, wild type and transgenic siblings from breeding colonies were used in parallel to rule out any potential effect of background strain on the outcomes. For treatments, the HSVtk pro-drug, ganciclovir (GCV; Roche), was dissolved in sterile water at 10 mg/ml, and then diluted in sterile 1×-concentrated phosphate-buffered saline (PBS) for daily dosing (10 mg/kg for 21 days, intraperitoneal injection). Control animals were injected with vehicle (PBS) in parallel.
# Oocyte counts. Prior to the start of PBS or GCV injections, 21 days after daily dosing with GCV, and 21 days after ceasing GCV treatment, ovaries were collected from mice at the indicated ages, fixed, embedded in paraffin, and serially sectioned for histomorphometry-based quantification of the number of oocyte-containing primordial follicles, as detailed (Jones and Krohn, J Endocrinol, 21:469-495 (1961); Johnson et al., Nature, 428:145-150 (2004); and Wang and Tilly, Cell Cycle, 9:339-349 (2010)). All samples were assessed in a completely blinded fashion, and reproducibility was independently confirmed with randomly selected slides by a second observer. In all cases, variation in counts between observers was less than 7%.
Molecule,estradiol production [1],progesterone production [1],"response of primordial follicle pool to GCV treatment ([2]; advanced aged mice, 10-11 months of age, 10 mg/kg daily for 21 days, intraperitoneal)","primordial follicle reserve after GCV treatment ([2]; middle-age adult mice, 5-6 months of age, 10 mg/kg daily for 21 days, intraperitoneal)","time for primordial follicle pool to regenerate back to control (PBS, vehicle) levels after ceasing GCV treatment ([2]; young adult (2-3 months) and middle-age (5-6 months) mice) [days]","primordial follicle reserve after GCV treatment ([2]; young adult mice, 2-3 months of age, 10 mg/kg daily for 21 days, intraperitoneal)"
"Nc1ncnc2c1nc(Br)n2[C@@H]1O[C@@H]2COP(=O)(O)O[C@H]2[C@H]1O [8-br-cAMP, 8-bromoadenosine-3′,5′-cyclic monophosphate]",significant increase,significantly enhance,–,–,–,–
follicle stimulating hormone [FSH],significant increase,only 8-br-cAMP was able to significantly enhance,–,–,–,–
"Nc1nc(O)c2ncn(COC(CO)CO)c2n1 [GCV, ganciclovir]",–,–,completely refractory,reduced primordial follicle reserve,≤ 21,reduced primordial follicle reserve
